Test results reported in article PMC9502404, “The Strong Anti-Tumor Effect of Smp24 in Lung Adenocarcinoma A549 Cells Depends on Its Induction of Mitochondrial Dysfunctions and ROS Accumulation” (Toxins, 2022).
pIC50: −log10 of the molar value. Where no end group is shown, it is not given here.

What was measured:
[1] = tested on: A549 cells; test: MTT cell viability and proliferation assay; assay type: cell-based, human; details: Smp24 1.25-20 μM, 12, 24 and 48 h tested, time of the IC50 not stated, triplicate, consistent with ref 10
Method: Cellular viability was analyzed via MTT method as reported in our previous study. Briefly, A549 cells (1 × 10^4 cells/well) were cultured in 96-well plates and treated with a gradient concentration of Smp24 (1.25–20 μM) at different time intervals (12, 24, and 48 h). A549 cells were pre-incubated with different inhibitors including 40 μΜ Nec-1, 40 μM Z-DEVD-FMK, 40 μM Z-VAD-FMK, and 2 mM NAC for 30 min before 5 μM Smp24 was incubated with the cells for 12 h to investigate the responsibility of different signaling pathways in the cytotoxic effects of Smp24. After incubation, 10 µL MTT (5 mg/mL) was then added and incubated for 4 h at 37 °C in the dark. Subsequently, 200 µL DMSO was applied into each well after discarding the cell medium, and the cell viability was estimated by calculating the absorbance value at 490 nm via a microplate reader (Tecan Company, Männedorf, Switzerland). The experiments were performed in triplicate.

[2] = tested on: MRC-5; test: MTT cell viability assay, normal cells; assay type: cell-based; details: time not stated, MRC-5 not described in methods

IWSFLIKAATKLLPSLFGGGKKDS [Smp24]
pIC50 [1]: ~5.39 | pIC50 [2]: ~4.83
